Test results as given in EPA's ToxValDB 9.5.
Where “and” joins values, the source holds several entries; their conditions need not be identical. Equal entries are not always repeated.

Experiments:
Rattus norvegicus [1] = conditions: for LOAEL: M; for NOAEL: M/F
Homo sapiens [2] = conditions: clinical, inhalation, M/F
Rattus norvegicus [3] = conditions: chronic
Rattus norvegicus [4] = conditions: repeat dose other; oral
Oryctolagus sp. [5] = test: LD0; higher = less toxic; conditions: acute, oral
Rattus norvegicus [6] = conditions: oral, gavage
Rattus norvegicus [7] = tested on: Rattus norvegicus
Oryctolagus sp. [8] = conditions: for LD50: acute, dermal; for NOAEL: duration: 13 days, oral, gavage
Mus musculus [9] = conditions: acute; oral
Canidae [10] = conditions: chronic, oral, M/F, Dog Other
Mus musculus [11] = conditions: oral, diet, M/F, CD1
Homo sapiens [12] = conditions: clinical, oral, M/F
Rattus norvegicus [13] = conditions: oral, diet
Mus musculus [14] = conditions: oral, M
Pelecanus occidentalis = conditions: oral
Rattus norvegicus [15] = conditions: uterotrophic, Active
Mus musculus [16] = conditions: uterotrophic, injection, Active
Mus musculus [17] = conditions: chronic; duration: 2 years; inhalation; intermittent; Nasal mucosa: Hyperplasia + Nasal mucosa: Hypertrophy
Canidae [18] = conditions: chronic; duration: 2 years; oral; diet; Dog Other; Central nervous system: Convulsions + Liver: Lesions
Canidae [19] = conditions: chronic; duration: 2 years; oral; diet; F; Beagle; neurological, hepatic
Mus musculus [20] = conditions: repeat dose other; oral
Megascops sp. = conditions: oral
Homo sapiens [21] = conditions: clinical; oral; M; Changes in cardiovascular function variables
Gallus sp. = conditions: repeat dose other; oral
[22] = short-term, duration: 4 weeks, oral, diet, Sprague-Dawley
[23] = duration: 2 years, diet, reduced body weight gain, and increased liver and kidney weight
[24] = radioactive iodide uptake inhibition (raiu) in the thyroid
[25] = duration: 27 weeks, oral, diet, M/F, liver lesions
[26] = histological lesions in liver, occasional convulsions

Question: What does the source list for C1COCCO1 [1,4-Dioxane]?
Answer: LOAEL (Rattus norvegicus [1]; chronic, duration: 104 weeks, inhalation, whole body, Fischer 344, respiratory): 180 mg/m3; NOAEL (Rattus norvegicus [1]; chronic, duration: 716 days, oral, drinking water, Sherman Wistar, hepatic): 9.6 mg/kg-day; NOAEL (Rattus norvegicus [1]; developmental, duration: 9 days, oral, gavage, Sprague-Dawley, developmental): 516 mg/kg-day; NOAEL (Rattus norvegicus [1]; subchronic, duration: 13 weeks, oral, drinking water, Fischer 344, hepatic): 52 mg/kg-day; NOAEL (Homo sapiens [2]; duration: 2 hours, ocular): 72.1 mg/m3; LOAEL (Rattus norvegicus [3]; inhalation, M, atrophy and respiratory metaplasia of the olfactory epithelium): 180 mg/m3; NOAEL (Rattus norvegicus [3]; oral, M, liver and kidney toxicity): 9.6 mg/kg-day; LOAEL (Rattus norvegicus [4]): 1 mg/kg-day; NOAEL (Rattus norvegicus [4]): 0.5 mg/kg-day

Question: Which LD0 (Oryctolagus sp. [5]) does the source give for S=c1[nH]c2ccccc2s1 [2-Mercaptobenzothiazole] here?
Answer: Its LD0 is ≥ 7500 mg/kg and ≤ 8750 mg/kg.

Question: And the LD0 (Oryctolagus sp. [5]; New Zealand)?
Answer: The LD0 was ≥ 7500 mg/kg and ≤ 8750 mg/kg.

Question: And the NOEL (Rattus norvegicus [6]; subchronic, duration: 13 weeks, M/F, Fischer 344, Absolute Organ Weight: Liver increase + Relative Organ Weight: Liver increase)?
Answer: The NOEL was under 188 mg/kg-day.

Question: And the NOEL (Rattus norvegicus [6]; subchronic, M, Sprague-Dawley, Clinical Observation: Locomotor activity with ptosis decrease, Salivation + Body Weight Changes: Suppression of body weight gain(tendency…)?
Answer: Its NOEL is under 40 mg/kg-day.

Question: What about the LC50 (Rattus norvegicus [7]; acute, inhalation) of the same compound?
Answer: The LC50 was over 1.27 mg/L.

Question: What about the LD50 (Rattus norvegicus [7]; acute, oral, Sprague-Dawley) of the same compound?
Answer: The LD50 was 2830 mg/kg and 3800 mg/kg.

Question: What about the NOAEL (Rattus norvegicus [7]; developmental, duration: 10 days, oral, gavage, Sprague-Dawley) of the same compound?
Answer: The NOAEL was 1800 mg/kg-day and 2200 mg/kg-day.

Question: What about the NOAEL (Rattus norvegicus [7]; reproduction developmental, duration: 10 days, oral, gavage, F, Sprague-Dawley) of the same compound?
Answer: Its NOAEL is 300 mg/kg-day.

Question: And the NOAEL (Rattus norvegicus [7]; reproduction developmental, oral, diet, Crl:CD COBS BR)?
Answer: The NOAEL was 2500 ppm.

Question: And the NOAEL (Rattus norvegicus [7]; reproduction developmental, oral, diet, Sprague-Dawley, generation: F0)?
Answer: Its NOAEL is under 5000 ppm.

Question: And the NOAEL (Rattus norvegicus [7]; reproduction developmental, oral, diet, Sprague-Dawley, generation: F1)?
Answer: Its NOAEL is under 5000 ppm.

Question: And the LOAEL (Rattus norvegicus [7]; [22])?
Answer: Its LOAEL is 1070 mg/kg-day.

Question: And the NOAEL (Rattus norvegicus [7]; [22])?
Answer: Its NOAEL is 714 mg/kg-day.

Question: And the NOAEL (Rattus norvegicus [7]; subchronic, duration: 13 weeks, oral, gavage, Fischer 344)?
Answer: Its NOAEL is 375 mg/kg-day.

Question: What about the LD50 (Oryctolagus sp. [8]) of the same compound?
Answer: The LD50 was over 7940 mg/kg.

Question: What about the LD50 (Oryctolagus sp. [8]; New Zealand) of the same compound?
Answer: The LD50 was over 7940 mg/kg.

Question: And the NOAEL (Oryctolagus sp. [8]; developmental, New Zealand)?
Answer: Its NOAEL is 300 mg/kg-day.

Question: What about the NOAEL (Oryctolagus sp. [8]; reproduction developmental, F, New Zealand) of the same compound?
Answer: The NOAEL was 300 mg/kg-day and < 150 mg/kg-day.

Question: What about the LD50 (Mus musculus [9]) of the same compound?
Answer: Its LD50 is 2000 mg/kg.

Question: How did the LEL (Canidae [10]; [23]) turn out when c1ccc(Nc2ccccc2)cc1 [Diphenylamine] was run?
Answer: Its LEL is 25 mg/kg-day.

Question: What about the NOEL (Canidae [10]; [23]) of the same compound?
Answer: Its NOEL is 2.5 mg/kg-day.

Question: What about the NOAEL (Mus musculus [11]; subchronic, duration: 90 days) of the same compound?
Answer: Its NOAEL is 2.1 mg/kg-day.

Question: What about the NOEL (Rattus norvegicus [6]; short-term, duration: 28 days, M/F, Fischer 344, Clinical Observation: Dark brown colored bedding + Body Weight Changes: Weight gain decrease + Food Consumption: decrease + Hematology: RBC …) of the same compound?
Answer: The NOEL was 111 mg/kg-day.

Question: Which results are given for [O-][Cl+3]([O-])([O-])[O-] [Perchlorate]?
Answer: LOEL (Homo sapiens [12]; [24]): 0.02 mg/kg-day; NOEL (Homo sapiens [12]; [24]): 0.007 mg/kg-day

Question: How did the NOEL (Rattus norvegicus [13]; chronic, duration: 27 weeks, Liver: Lesions) turn out when Clc1ccc(C(c2ccc(Cl)cc2)C(Cl)(Cl)Cl)cc1 [DDT] was run?
Answer: Its NOEL is 0.05 mg/kg-day.

Question: What about the LOAEL (Mus musculus [14]; developmental, duration: 14 days, gavage, NMRI, developmental) of the same compound?
Answer: The LOAEL was 0.5 mg/kg-day.

Question: What about the LOAEL (Rattus norvegicus [3]; [25]) of the same compound?
Answer: The LOAEL was 0.39 mg/kg-day.

Question: And the NOEL (Rattus norvegicus [3]; [25])?
Answer: The NOEL was 0.05 mg/kg-day.

Question: What about the LOAEL (Rattus norvegicus [4]) of the same compound?
Answer: Its LOAEL is 4 mg/kg-day.

Question: What about the NOAEL (Rattus norvegicus [4]) of the same compound?
Answer: Its NOAEL is 0.8 mg/kg-day.

Question: And the LOAEL (Pelecanus occidentalis)?
Answer: Its LOAEL is 0.028 mg/kg-day.

Question: What about the NOAEL (Pelecanus occidentalis) of the same compound?
Answer: The NOAEL was 0.0028 mg/kg-day.

Question: What about the LEL (Rattus norvegicus [15]; duration: 1 days, injection, intraperitoneal) of the same compound?
Answer: The LEL was 12.5 mg.

Question: What about the LEL (Rattus norvegicus [15]; duration: 3 days, injection, intraperitoneal) of the same compound?
Answer: Its LEL is 4 mg.

Question: What about the LEL (Rattus norvegicus [15]; duration: 3 days, oral) of the same compound?
Answer: Its LEL is 100 mg/kg-day.

Question: What about the LEL (Mus musculus [16]; duration: 3 days, intraperitoneal) of the same compound?
Answer: Its LEL is 100 mg/kg-day.

Question: What about the LEL (Mus musculus [16]; duration: 3 days, subcutaneous) of the same compound?
Answer: Its LEL is 1000 mg/kg-day.

Question: What about the LEL (Mus musculus [16]; duration: 5 days, subcutaneous) of the same compound?
Answer: The LEL was 10 mg/kg-day.

Question: CNC(=O)O/N=C/C(C)(C)SC [Aldicarb] was tested. Which LOAEL (Homo sapiens [12]; cholinesterase inhibition) did it give?
Answer: Its LOAEL is 0.025 mg/kg-day.

Question: And the NOAEL (Homo sapiens [12]; cholinesterase inhibition)?
Answer: Its NOAEL is 0.01 mg/kg-day.

Question: ClC=CCCl [1,3-Dichloropropene] was tested. Which NOEL (Rattus norvegicus [13]; subchronic, duration: 90 days, Organs: Increased weight) did it give?
Answer: Its NOEL is 3 mg/kg-day.

Question: And the NOAEL (Mus musculus [17])?
Answer: The NOAEL was 22.7 mg/m3.

Question: Which results are given for ClC1=C(Cl)[C@]2(Cl)[C@@H]3[C@H]4C[C@H]([C@@H]5O[C@H]45)[C@@H]3[C@@]1(Cl)C2(Cl)Cl [Endrin]?
Answer: NOEL (Canidae [18]): 0.025 mg/kg-day; NOAEL (Canidae [19]): 0.025 mg/kg-day; LOAEL (Canidae [10]; [26]): 0.05 mg/kg-day; NOEL (Canidae [10]; [26]): 0.025 mg/kg-day; LOAEL (Mus musculus [20]): 0.92 mg/kg-day; NOAEL (Mus musculus [20]): 0.092 mg/kg-day; LOAEL (Megascops sp.): 0.1 mg/kg-day; NOAEL (Megascops sp.): 0.01 mg/kg-day

Question: Which NOEL (Homo sapiens [21]) does the source give for CC(CCc1ccc(O)cc1)NCC(O)c1ccc(O)cc1.Cl (stereo not given) [Ractopamine hydrochloride] here?
Answer: Its NOEL is 0.067 mg/kg-day.

Question: With Cc1ccccc1 [1-Methylbenzene] as the compound, how does the LOAEL (Rattus norvegicus [1]; acute, duration: 1 days, oral, gavage, Long-Evans, neurological) read?
Answer: The LOAEL was 250 mg/kg-day.

Question: What about the LOAEL (Homo sapiens [2]; duration: 20 minutes, neurological) of the same compound?
Answer: Its LOAEL is 56.5 mg/m3.

Question: And the NOAEL (Mus musculus [14]; short-term, duration: 28 days, drinking water, CD1, immunological)?
Answer: The NOAEL was 22 mg/kg-day.

Question: And the LOAEL (Mus musculus [20])?
Answer: The LOAEL was 260 mg/kg-day.

Question: And the NOAEL (Mus musculus [20])?
Answer: Its NOAEL is 26 mg/kg-day.

Question: With CN(C)C=O [N,N-Dimethylformamide] as the compound, how does the NOAEL (Mus musculus [11]; chronic, duration: 119 days, hepatic) read?
Answer: Its NOAEL is 96 mg/kg-day.

Question: How did the LOAEL (Rattus norvegicus [4]) turn out when [Ba+2].[OH-].[OH-] [Barium hydroxide] was run?
Answer: Its LOAEL is 19.8 mg/kg-day.

Question: And the LOAEL (Gallus sp.)?
Answer: Its LOAEL is 41.7 mg/kg-day.

Question: And the NOAEL (Gallus sp.)?
Answer: The NOAEL was 20.8 mg/kg-day.
